Some test systems named below: CAKI-1 renal; SR leukemia; A498 renal; LOX IMVI melanoma; NCI-H522 lung; MALME-3M melanoma; OVCAR-8 ovarian; SF-539 CNS; HL-60(TB) leukemia; SNB-19 CNS.
Holding throughout (experiment): inhibition of tumour cell growth, NCI panel, 48 h

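A five-concentration, 48-hour dose response in 96-well plates underlies each endpoint, interpolated linearly between surrounding concentrations. At the GI50, growth is halved. At the TGI there is no net growth.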

As to `Cc1ncc(C(=O)Nc2ccc(CN3CCN(C)CC3)c(C(F)(F)F)c2)cc1C#Cc1cnc(N)c2ccncc12`, the GI50 in the assay on CAKI-1 renal is 1.11 µM; with SR leukemia, 2.33 µM; in the assay on A498 renal it was 1.35 µM; with LOX IMVI melanoma, 0.337 µM; in the assay with NCI-H522 lung it was 1.14 µM; in the assay on MALME-3M melanoma, 0.361 µM. Besides, the GI50 with OVCAR-8 ovarian is 1.69 µM; with SF-539 CNS it was 0.548 µM; in the assay on HL-60(TB) leukemia, 0.79 µM; in the assay on SNB-19 CNS, 1.8 µM. Further, the TGI came to 2.66 µM in the assay with CAKI-1 renal; 29.8 µM in the assay with SR leukemia; 2.92 µM in the assay with A498 renal; 1.4 µM with LOX IMVI melanoma; 2.5 µM with NCI-H522 lung; 1.59 µM with MALME-3M melanoma. The TGI with OVCAR-8 ovarian is 6.55 µM; in the assay on SF-539 CNS, 1.79 µM; with HL-60(TB) leukemia, 4.06 µM; in the assay with SNB-19 CNS, 4.62 µM.

Take `C=CCCCCOc1ccccc1-c1cnc(OCCCCC=C)n1C`: the GI50 with CAKI-1 renal is 4.36 µM; with SR leukemia it was 4.3 µM; in the assay with A498 renal, 2.1 µM; in the assay with LOX IMVI melanoma, 4.89 µM; in the assay with NCI-H522 lung, 2.59 µM; in the assay on MALME-3M melanoma, 3.63 µM. Moreover, the GI50 is 4.23 µM in the assay on OVCAR-8 ovarian, 5.82 µM in the assay on SF-539 CNS, 2.17 µM in the assay on HL-60(TB) leukemia and 7.39 µM in the assay on SNB-19 CNS. The TGI in the assay on CAKI-1 renal was determined as 23.8 µM; in the assay on SR leukemia, 13.7 µM; in the assay with A498 renal, 10.2 µM; in the assay on LOX IMVI melanoma, 17 µM; with NCI-H522 lung it was 6.72 µM; in the assay with MALME-3M melanoma, 16.4 µM. Also, the TGI in the assay with OVCAR-8 ovarian was 17.2 µM; with SF-539 CNS it was 19.7 µM; in the assay on HL-60(TB) leukemia, 7.14 µM; in the assay on SNB-19 CNS, 38.1 µM.

On to `O=C(O)Cc1cc(Cl)ccc1O`, for which the TGI in the assay with CAKI-1 renal, in the assay with SR leukemia, with A498 renal, with LOX IMVI melanoma, in the assay with NCI-H522 lung and in the assay on MALME-3M melanoma was > 100 µM each time. Besides, the TGI in the assay on OVCAR-8 ovarian, in the assay on SF-539 CNS, with HL-60(TB) leukemia and in the assay with SNB-19 CNS was > 100 µM each time.

Turning to `Nc1nc(/C=C\c2ccc([N+](=O)[O-])s2)nc(N2CCCC2)n1`, the GI50 in the assay with CAKI-1 renal is 7.1 µM; in the assay on SR leukemia it was 1.62 µM; in the assay on A498 renal, 16.6 µM; in the assay with LOX IMVI melanoma, 0.198 µM; in the assay with NCI-H522 lung, 2.55 µM; with MALME-3M melanoma, 12.3 µM. Moreover, the GI50 in the assay on OVCAR-8 ovarian was 3.49 µM; in the assay on SF-539 CNS, 8.24 µM; with HL-60(TB) leukemia it was 5.39 µM; in the assay on SNB-19 CNS it was 3.01 µM. The TGI stood at 24.6 µM in the assay on CAKI-1 renal; 6.49 µM with SR leukemia; 34.6 µM with A498 renal; 2.41 µM in the assay with LOX IMVI melanoma; 8.67 µM with NCI-H522 lung; 28.5 µM in the assay with MALME-3M melanoma. In addition, the TGI stood at 22.5 µM in the assay with OVCAR-8 ovarian, 30.4 µM with SF-539 CNS, 25.3 µM with HL-60(TB) leukemia and 21.6 µM in the assay on SNB-19 CNS.

On to `O=C1OCC2=C1C(c1cccc(Br)c1)c1cc3c(cc1N2CCO)CCC3` (stereo not given), for which the GI50 was 0.22 µM in the assay on CAKI-1 renal; 0.185 µM with SR leukemia; 0.0155 µM in the assay on A498 renal; 0.119 µM in the assay with LOX IMVI melanoma; 0.0148 µM in the assay on NCI-H522 lung; 0.066 µM with MALME-3M melanoma. The GI50 was 0.14 µM with OVCAR-8 ovarian, 0.0801 µM in the assay on SF-539 CNS, 0.0763 µM in the assay with HL-60(TB) leukemia and 0.209 µM in the assay on SNB-19 CNS. For the same compound, the TGI was found to be 8.15 µM in the assay with CAKI-1 renal; 22.2 µM in the assay on SR leukemia; 0.199 µM in the assay with A498 renal; 7.56 µM in the assay on LOX IMVI melanoma; 0.521 µM in the assay with NCI-H522 lung; 12.1 µM in the assay with MALME-3M melanoma. For the same compound, the TGI in the assay with OVCAR-8 ovarian was determined as 0.852 µM; in the assay on SF-539 CNS, 5.46 µM; in the assay on HL-60(TB) leukemia, 0.444 µM; in the assay with SNB-19 CNS it was 9.98 µM.

For the compound `CCOC(=O)C(Cc1ccc(CCCC(=O)NCCC(=O)Nc2ccc3nc(C)sc3c2)cc1)C(=O)OCC`, the GI50 with CAKI-1 renal was 49.1 µM; in the assay on SR leukemia it was 50.8 µM; with A498 renal, > 100 µM; in the assay on LOX IMVI melanoma it was 33.2 µM; with NCI-H522 lung, 33.1 µM; with MALME-3M melanoma it was 28.3 µM. Besides, the GI50 in the assay with OVCAR-8 ovarian is 20.1 µM; in the assay with SF-539 CNS, 42.5 µM; in the assay on HL-60(TB) leukemia, 23.7 µM; in the assay with SNB-19 CNS it was > 100 µM. In addition, the TGI in the assay on CAKI-1 renal was > 100 µM; in the assay on SR leukemia, > 100 µM; in the assay with A498 renal it was > 100 µM; in the assay with LOX IMVI melanoma it was > 100 µM; in the assay on NCI-H522 lung, > 100 µM; in the assay on MALME-3M melanoma, > 84.4 µM. Besides, the TGI with OVCAR-8 ovarian was 42.1 µM; in the assay on SF-539 CNS, > 82.6 µM; in the assay on HL-60(TB) leukemia, 64.7 µM; with SNB-19 CNS it was > 100 µM.

(Values after PubChem BioAssay (NCI).)
